Laboratory results published in ChEMBL document CHEMBL1201862, “PubChem BioAssay data set” (2004).
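Where inhibition never reached the appropriate level, the endpoint shown equals the highest concentration tested. Otherwise, values were interpolated linearly from a five-concentration, 48-hour dose response in 96-well plates. Abbreviation: GI50, concentration required for 50% inhibition of growth.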 The source made the active and inactive calls. Cut-off read from the data, not from the text of the source: active = GI50 up to about 1.1 µM and inactive = higher.

How the values were obtained:
Experiment in all cases: NCI-60 cell line screen, 48 h
EKVX = tested on: EKVX
HCT-116 = tested on: HCT-116
HCT-15 = tested on: HCT-15
Hs-578T = tested on: Hs-578T
IGROV-1 = tested on: IGROV-1
K562 = tested on: K562
MDA-MB-435 = tested on: MDA-MB-435
NCI-H226 = tested on: NCI-H226
NCI-H23 = tested on: NCI-H23
NCI-H460 = tested on: NCI-H460
NCI/ADR-RES = tested on: NCI/ADR-RES
PC-3 = tested on: PC-3
SF-268 = tested on: SF-268
SK-OV-3 = tested on: SK-OV-3
SN12C = tested on: SN12C
SNB-75 = tested on: SNB-75
T47D = tested on: T47D
UACC-257 = tested on: UACC-257
RXF 393 = tested on: RXF 393

Compound	GI50 (EKVX)	GI50 (HCT-116)	GI50 (HCT-15)	GI50 (Hs-578T)	GI50 (IGROV-1)	GI50 (K562)	GI50 (MDA-MB-435)	GI50 (NCI-H226)	GI50 (NCI-H23)	GI50 (NCI-H460)	GI50 (NCI/ADR-RES)	GI50 (PC-3)	GI50 (SF-268)	GI50 (SK-OV-3)	GI50 (SN12C)	GI50 (SNB-75)	GI50 (T47D)	GI50 (UACC-257)	GI50 (RXF 393)
C=CCCC1CCCCC/C1=N\N(C)C (centres undefined)	> 100 µM (inactive)	> 100 µM (inactive)	> 100 µM	> 100 µM (inactive)	> 100 µM (inactive)	> 100 µM (inactive)	> 100 µM (inactive)	> 100 µM (inactive)	> 100 µM (inactive)	> 100 µM (inactive)	> 100 µM (inactive)	> 100 µM (inactive)	> 100 µM (inactive)	> 100 µM (inactive)	> 100 µM (inactive)	> 100 µM (inactive)	> 100 µM (inactive)	> 100 µM (inactive)	–
O=C(c1ccccn1)c1nnn2ccccc12	> 100 µM (inactive)	> 100 µM (inactive)	> 100 µM	> 100 µM (inactive)	> 100 µM (inactive)	> 100 µM (inactive)	> 100 µM (inactive)	> 100 µM (inactive)	> 100 µM (inactive)	> 100 µM (inactive)	–	> 100 µM (inactive)	> 100 µM (inactive)	> 100 µM (inactive)	> 100 µM (inactive)	> 100 µM (inactive)	> 100 µM (inactive)	> 100 µM (inactive)	–
COc1cc2c(cc1OC)C(=O)/C(=C/c1ccc(O)cc1)CC2	> 10 µM (inactive)	> 10 µM (inactive)	> 10 µM	> 10 µM (inactive)	> 10 µM (inactive)	> 10 µM (inactive)	> 10 µM (inactive)	> 10 µM (inactive)	> 10 µM (inactive)	> 10 µM (inactive)	> 10 µM (inactive)	> 10 µM (inactive)	> 10 µM (inactive)	> 10 µM (inactive)	> 10 µM (inactive)	–	> 10 µM (inactive)	> 10 µM (inactive)	> 10 µM (inactive)
CC(=O)Nc1c(C)cc2c(nc3n2CCC3O)c1[N+](=O)[O-] (centres undefined)	> 100 µM (inactive)	> 100 µM (inactive)	> 100 µM	> 100 µM (inactive)	> 100 µM (inactive)	> 100 µM (inactive)	> 100 µM (inactive)	> 100 µM (inactive)	> 100 µM (inactive)	> 100 µM (inactive)	> 100 µM (inactive)	> 100 µM (inactive)	> 100 µM (inactive)	> 100 µM (inactive)	> 100 µM (inactive)	> 100 µM (inactive)	> 100 µM (inactive)	> 100 µM (inactive)	–
N#CC1Cc2cc3c(cc21)OCO3 (centres undefined)	> 100 µM (inactive)	> 100 µM (inactive)	> 100 µM	> 100 µM (inactive)	> 100 µM (inactive)	> 100 µM (inactive)	> 100 µM (inactive)	> 100 µM (inactive)	> 100 µM (inactive)	> 100 µM (inactive)	> 100 µM (inactive)	> 100 µM (inactive)	–	–	> 100 µM (inactive)	> 100 µM (inactive)	> 100 µM (inactive)	> 100 µM (inactive)	–
O=c1[nH]nc(Cc2ccccc2)n1/N=C/c1c(O)ccc2ccccc12	20.7 µM (inactive)	20.2 µM (inactive)	51.6 µM	19.4 µM (inactive)	21.2 µM (inactive)	23.2 µM (inactive)	29.2 µM (inactive)	24.5 µM (inactive)	27.2 µM (inactive)	–	20.1 µM (inactive)	22.9 µM (inactive)	24.6 µM (inactive)	–	41.1 µM (inactive)	17.7 µM (inactive)	20.2 µM (inactive)	35.3 µM (inactive)	22.3 µM (inactive)
N#C/C(C(=O)CCl)=C1\Nc2ccccc2O1	–	3.43 µM (inactive)	2.01 µM	6.01 µM (inactive)	1.83 µM (inactive)	3.24 µM (inactive)	3.24 µM (inactive)	2.3 µM (inactive)	3.75 µM (inactive)	3.19 µM (inactive)	2.2 µM (inactive)	4.45 µM (inactive)	2.67 µM (inactive)	12.1 µM (inactive)	2.9 µM (inactive)	5.48 µM (inactive)	15.6 µM (inactive)	3.07 µM (inactive)	1.85 µM (inactive)
COc1ccc(C2C(C#N)=C(S)N(C3OC(COC(C)=O)C(OC(C)=O)C(OC(C)=O)C3OC(C)=O)C(c3ccccc3)=C2C(C)=O)cc1 (centres undefined)	–	> 100 µM (inactive)	> 100 µM	70.8 µM (inactive)	> 100 µM (inactive)	37.5 µM (inactive)	33.6 µM (inactive)	> 100 µM (inactive)	> 100 µM (inactive)	> 100 µM (inactive)	> 100 µM (inactive)	> 100 µM (inactive)	> 100 µM (inactive)	–	> 100 µM (inactive)	18.7 µM (inactive)	17.3 µM (inactive)	> 100 µM (inactive)	78.9 µM (inactive)
